The source of these data is PMC6511062, “Preclinical candidate for the treatment of visceral leishmaniasis that acts through proteasome inhibition” (Proceedings of the National Academy of Sciences of the …, 2019).

Converted amounts (≈) assume the structure as drawn. “Also recorded” adds a separate entry of the source. Read-outs that look alike come from different tables or passages of the source. Bounds are passed on as bounds.

In data set [1] the test system is L. donovani intramacrophage amastigotes. In words: L. donovani intramacrophage assay (amastigotes in differentiated THP-1 cells). Type of data set: cell-based, Leishmania donovani. Particulars: Leishmania donovani. The procedure:
(§1) T. cruzi4, Leishmania donovani axenic amastigote, cidal axenic amastigote and intra-
(§2) macrophage drug sensitivity assays were conducted as previously described5,6. […]
(§3) 5. Intrinsic clearance (CLint) […]
(§4) 6. Pharmacokinetic studies. […]

The nature of data set [2]: Intrinsic clearance in mouse liver microsomes. Type of data set: in vitro ADME. As for the experimental part: page 13: 4. Parasite assays T. cruzi4, Leishmania donovani axenic amastigote, cidal axenic amastigote and intra- macrophage drug sensitivity assays were conducted as previously described5,6. a. […] Instead of a single readout at 72 h, multiple identical plates were used and read at different time points (24, 48, 72 h). Rate of kill curves showing the luminescence signal at each time point for each concentration were plotted. 5. […] The rate of intrinsic clearance (CLint) of each test compound was then calculated using the following calculation: CLint(mL/min/g liver) = k x V x Microsomal protein yield Where V (mL/mg protein) is the incubation volume/mg protein added and microsomal protein yield is taken as 52.5 mg protein/g liver. Verapamil (0.5 μM) was used as a positive control to confirm acceptable assay performance. 6. Pharmacokinetic studies. a. Mouse and dog PK Mouse pharmacokinetic studies were conducted in male CD-1 mice and male beagle dogs. 3 animals per group were used for each study performed. A dose of 3 mg/kg was administered intravenously, in a bolus form to mice and infused over a 30 min period to dogs. For all the intravenous studies compound were dissolved in 5% DMSO/20% kleptose in saline. A dose of 10 mg/kg was orally administered by gavage to the two species in a suspension of 1% methylcellulose to investigate oral pharmacokinetics. S13
Background: Liver microsomes are vesicles of endoplasmic reticulum, rich in cytochrome P450 enzymes.

Data set [3] concerns THP-1 cells. In words: Mammalian cell growth inhibition (THP-1). The class given is cell-based. Particulars: Homo sapiens. The text has this: We hypothesized that, in view of their structural similarity, 1 and 2 probably shared the same mechanism of action.
A short description of data set [4]: CAD (charged aerosol detector) solubility.
In data set [5] the test system is Trypanosoma cruzi. In words: T. cruzi phenotypic screening assay. The class given is cell-based. The following applies: phenotypic screen, read-out: EC50 against T. cruzi. The procedure: as §1, §2, §3, §4
The nature of data set [6]: Solubility in fasted simulated intestinal fluid (FaSSIF). The following applies: fassif.
Data set [7] relates to Salmonella typhimurium TA1535, TA1537, TA98, TA100 and Escherichia coli WP2uvrA(pKM101). Put plainly: Bacterial mutation screening assay (Ames test), overall outcome. Type of data set: cell-based. Particulars: presence and absence of S9-mix. As for the experimental part: i. Bacterial Mutation (Ames) Assay
Compound 6 was tested in a bacterial mutation screening assay (Ames test) with Salmonella typhimurium TA1535, TA1537, TA98, TA100 and Escherichia coli WP2uvrA(pKM101) in the presence and absence of an exogenous mammalian oxidative metabolism system (S9-mix). The maximum concentration tested and […]
Compound 6a was tested in a bacterial mutation screening assay (Ames test) with […]
Compound 7a was tested in a bacterial mutation screening assay (Ames test) with […]
The bacterial mutation screening assay was a plate incorporation test carried out as previously described15 and according to current methodology. […]
For orientation: The Ames test detects mutagens through reverse mutation in bacteria.

Data set [8] in a line: physchem.
Data set [9] concerns L. donovani proteasome β subunits. In words: Activity-based probe (UbiQ-018) labelling of L. donovani proteasome. The class given is binding, Leishmania donovani. The following applies: 100 µM. As for the experimental part: m. Activity-Based Probe Labelling of THP1 and L. donovani proteasome
Proteasome enriched fractions from THP1 (20 µg), L. donovani (10 µg) and L. donovani […]
µM for 1 h. Proteasome enriched fractions were also incubated with DMSO as control.
For all proteasome labelling experiments, the active-site probe Me4BodipyFL-Ahx3Leu3VS (UbiQ-018) was used at final concentration of 500 nM in sucrose buffer (50 mM Tris buffer pH 7.5, 5 mM magnesium chloride, 1 mM EDTA, 50 mM NaCl, 250 mM sucrose, 2 mM ATP, 1 mM DTT). Proteasome enriched fractions treated with […]
DMSO or test compounds, were incubated with the probe for 2h at RT. Samples were then denatured by addition of Laemmli sample buffer, heated to 95°C for 10 min and separated by electrophoresis on a 15% SDS-PAGE acrylamide gel. Following separation, gels were scanned in the fluorescein channel of a ChemiDoc reader (λ excitation/emission = 480/530 nm). Fluorescent proteins were excised and MALDI– TOF analysis carried out by the FingerPrints Proteomics service at the University of […]
10. Measuring Proteolytic activity of Leishmania tarentolae Proteasome […]
pre-prepared as a 10 mM stocks in 100 % DMSO and then diluted 1 in 3, over 11 points, prior to dispense of 100 nl of each dilution series into black, low volume, 384-well microplates. Proteasome was prepared as a 0.5 µg/mL working solution in assay buffer (50 mM HEPES (pH 7.5), 150 mM NaCl, 5 mM MgCl2, 5% glycerol, 1 mM CHAPS) and 5 µL was added using a Multidrop Micro (Thermo Fisher Scientific) to all wells containing compound dilutions on the test microplates. The microplates were then centrifuged for 1 min at 1000 rpm and incubated for 15 mins at 25 °C, prior to an assay initiating addition of 5 µl of fluorogenic substrate, which had been prepared as a 1 µM […]
The assay microplates were then centrifuged for 10 secs before using a Tecan M1000 Pro to monitor the increase of fluorescent intensity at 25 °C by excitation of the liberated Rhodamine110 at 485 nm and emission at 535 nm every 125 secs for 20 cycles. […]
calculate initial rates of reactions for all assay wells on the microplate by fitting to a linear regression model. The initial rates of reaction for all compound concentrations tested were normalised to the initial rates determined for 16 replicate control wells per microplate of both uninhibited reaction and no-proteasome background, and subsequently, IC50 values were determined by fitting the normalised data to the following four-parameter logistic model; y = a + (( b – a) / ( 1 + ( 10 ^ x / 10 ^ c ) ^ d ), where ‘a’ is the minimum, ‘b’ is […], ‘c’ is the IC50 and ‘d’ is […].
11. Cryo-EM of 20S Leishmania tarentolae proteasome a. Purification of 20S Leishmania tarentolae proteasome. […]

Data set [10] relates to human proteasome catalytic subunits (THP-1 extracts). Put plainly: Activity-based probe (UbiQ-018) labelling of THP-1 proteasome. Type of data set: binding. Particulars: human THP-1 extracts, 100 µM.
The subject of data set [11] is L. donovani promastigotes. Put plainly: microbe, parasite or virus in culture. The class given is cell-based, Leishmania donovani. Particulars: Leishmania donovani. As for the experimental part: 9. Mode of action studies a. Cell lines and culture conditions […]
c. Generation of drug-resistant parasites […]
donovani in the continuous presence of this compound. Starting at a sub-lethal […]
After a total of 120 days in
Genomic DNA was harvested from three independently generated L. donovani resistant clones and an age match control, as previously described27. PCR was performed using Platinum PCR Supermix (Invitrogen), as per manufacturer’s […]
generated using primers SubunitB4FW and SubunitB4RV, then sequenced using primer SubunitB4FW (Table S6). To sequence the β5 subunit (LdBPK_361730.1), an […]
sequenced using primer SubunitB5FW. PCR amplification and DNA sequencing were performed in triplicate for each independently generated cell line. The Leishmania donovani BPK282A1 sequences of the two subunits were identified in TriTrypDB and […]
e. Generation of overexpression constructs and LdBOB transgenic cell lines The genes encoding the mutated versions of the β4 (LdBPK_360340.1) and the β5 […]
parasites, were synthesised (GeneArt, Thermo Fischer Scientific). The synthetic genes, flanked by BamHI sites were cloned into the equivalent site of pIR1-SAT. The accuracy of all assembled constructs was verified by sequencing.
Mid-log-phase L. donovani promastigotes (LdBOB) were transfected with overexpression constructs using the Human T-Cell Nucleofector kit and the Amaxa Nucleofector electroporator (program V-033). Following transfection, cells were […]
to appropriate drug selection (100 µg/mL nourseothricin). Cloned cell lines were […]
selection for one passage prior to experiments. […]

The subject of data set [12] is chymotrypsin-like activity of the L. donovani proteasome. Put plainly: biochemical. Also on record: species or system Leishmania donovani. The following applies: lysates from RES II and WT parasites.
Experimental: An in vitro assay was developed that enabled the chymotrypsin-like activity and additional proteolytic activities associated with the proteasome to be directly monitored within proteasome-enriched parasite cell lysates. Likewise, human proteasome from two sources (i.e., commercially pure 26S and enriched proteasome fractions from THP-1 lysates) was tested using the same biochemical assays.
Proteasome enrichment by ultracentrifugation
The protocol described by Kisselev et al.34 was adapted to enrich the proteasomes present in L. donovani and THP1 crude extracts. L. donovani or THP1 cells were resuspended in sucrose buffer (50 mM Tris buffer pH 7.5, 5 mM Magnesium chloride, 1 mM EDTA, 50 mM NaCl, 250 mM sucrose, 2 mM ATP, 1 mM DTT) and lysed by nitrogen cavitation for 15 min (110 bars of 1500 psi). Lysates were centrifuged at 20,000g for 30 min at 4 °C and supernatants containing soluble protein were subjected to an ultracentrifugation step at 300,000g for 2h at 4 °C. The resulting proteasome-containing pellets were resuspended in sucrose buffer and left on ice for 30 min to complete solubilization. Samples were centrifuged for 10 min at 20,000 g to remove insoluble material. Proteins contained in supernatant (proteasome enriched fraction) were measured by Bradford.
Proteasome activity assays
Compounds were dispensed into black 384-well assay plates (Greiner) by acoustic dispensing (LabCyte ECHO). For potency determinations, eleven-point, one in three dilution curves were generated, with a top concentration of 100 µM. Three proteasome activities were measured using a commercially available indirect enzyme-based luminescent assay kit (Promega) with Suc-LLVY-aminoluciferin, Z-LRR-aminoluciferin and Z-nLPnLD-aminoluciferin used as substrates for chymotrypsin-like, trypsin-like and caspase-like activities, respectively. In addition to proteasome samples: L. donovani and THP1-enriched proteasomes, commercially available human purified 26S proteasome (Boston Biochem) was also assessed.
For data set [13], the system named is L. donovani (LV9). Also on record: method as in PMID 11353640. Particulars: similar mouse model, once daily; cited from earlier work.
The subject of data set [14] is L. donovani (LV9). In words: Mouse model of VL (in vivo efficacy in female Balb/C mice). Also on record: species or system Leishmania donovani. Particulars: 30 mg/kg u.i.d. (10 days PO). As for the experimental part:
Infected mice were dosed at 3, 10, or 25 mg/kg orally twice a day for 10 consecutive days. Two days after the termination of treatment, mice were euthanized, and the parasite burdens in their livers were determined.
Peripheral blood samples were obtained at 5, 15, 30 min, 1, 2, 4, 6 ,8 and 24 h after intravenous administration and 15, 30, 45 min,1, 2, 4, 6, 8 and 24 h after oral administration. Blood was 1/2 diluted with milliQ water and immediately frozen on dry ice until analysis. Quantification was performed by means of LC-MS/MS (API4000), with a lower limit of quantification of 1 ng/mL. […]
Data analysis and calculation of pharmacokinetic parameters was performed using Phoenix, WinNonLin Version 6.3. […]
For both intravenous and oral administration, the systemic exposures were determined by calculating the area under the blood concentration time curve (AUC) from the start of dosing to the last observed quantifiable concentration (AUC0-t) by using the linear up-log down trapezoidal rule. The slope of the terminal elimination phase was estimated by linear regression of the terminal data points (minimum 3 points) from a natural log concentration versus time plot of the data. The half-life (t1/2) of the terminal elimination phase was calculated as t1/2 = 0.693/λ.
7. In vivo efficacy in female Balb/C mice
To establish infection in mice, sodium stibogluconate-sensitive L. donovani (LV9, WHO designation: MHOM/ET/67/HU3) amastigotes were isolated from the spleen of a heavily infected donor hamster (Janvier, France)7. An inoculum containing 1.0 x 10^8 amastigotes/mL in Dulbecco’s modified eagles medium (high glucose) was prepared […]
and female BalbC mice (Harlan, UK) then infected intravenously via the tail vein with a 0.2 mL bolus (equivalent to ~2.0 x 10^7 amastigotes). Infection was left to establish for […]
daily orally as a suspension in 0.5% hydroxypropylmethylcellulose, 0.4% tween 80 and 0.5% benzyl alcohol. With twice daily regimens, the second daily dose was administered approximately 8 h following the first dose. Dose regimens evaluated were:
1. 50 mg/kg twice daily for 5 days
2. 25 mg/kg, 10 mg/kg and 3 mg/kg twice daily for 10 days
3. 25 mg/kg once daily for 10 days
Miltefosine, as the only oral treatment for visceral leishmaniasis, was used as a […]

The mark [15] stands for this setting: L. donovani amastigotes in differentiated THP-1 cells, read-out: Intramacrophage EC50.

What is called EC50 is the midpoint of the concentration-response curve. For orientation: solubility means the dissolved amount per volume that the medium holds. The low end stands for a poorly soluble substance, the high end for a readily soluble substance. Take `O=C(Nc1cccc(-c2nc3ncccc3o2)c1)c1ccco1` [Compound 1]: the EC50 in [1] (setting [15]) was 5700 nM; in [3], above 50000 nM; in [5] it was 220 nM. The same compound displayed a CLint in data set [2] of 24 mL/min/g. This compound also came in with a solubility in [4] of 58 µg/mL (≈ 190 µM).

With `O=C(Nc1cccc(-c2cn3cccnc3n2)c1)c1ccco1` [Compound 2], the EC50 in data set [1] (setting [15]) is 26000 nM; in [3] it was above 50000 nM; in [5], 930 nM. In data set [2], the CLint amounted to 8.5 mL/min/g. In [4], the solubility is at least 162 µg/mL.

On to `O=C(Nc1ccc(F)c(-c2cn3nc(N4CCOCC4)cnc3n2)c1)N1CCCC1` [Compound 7a], for which the EC50 is 410 nM in data set [1] (THP-1, read-out: Intramacrophage EC50) and above 50000 nM in [3]. For the same compound, the CLint in data set [2] turned out to be 0.91 mL/min/g. Besides, the results for the solubility in data set [6] and in data set [8] were 13 µg/mL (≈ 31.6 µM) and 24 µg/mL (≈ 58.3 µM), respectively. In addition, the AMES entry in data set [7] is “not mutagenic; also recorded: negative”.

On to `CC(C)C[C@H](NC(=O)[C@H](Cc1ccccc1)NC(=O)c1cnccn1)B(O)O` [bortezomib, reference compound], for which the “UbiQ-018 labelling of proteasome subunits” value in [9] (L. donovani WT extracts), in [9] (L. donovani-resistant RES II extracts) and in data set [10] was “prevents labeling of proteasome subunits in all extracts” each time. Also, the EC50 came to 28 ± 1.4 nM in data set [11] (RES I (compound 7-resistant clone)), 32 ± 1.5 nM in data set [11] (RES III (compound 7-resistant clone)) and 31 ± 1.5 nM in data set [11] (WT promastigotes). In addition, the “inhibition of chymotrypsin-like activity, RES II vs WT lysates” value in data set [12] is on record as “equal potency”.

`CCCCCCCCCCCCCCCCOP(=O)([O-])OCC[N+](C)(C)C` [miltefosine, reference compound]: the ED90 in [13] is on record as 27 mg/kg. Also, the “Reduction in parasite burden (compared to the vehicle control group)” value in [14] was 99.9%.
